US20050009840A1 (SUGEN, INC., priority 2003, published 2005)

target: T1, HGFR (Homo sapiens, UniProt P08581); assay: HGFR continuous-coupled spectrophotometric assay; format: biochemical; conditions: at 1 pM; Table 7, library procedure 42; read-out: % Inhibition (percent c-MET inhibition)
T1 construct: purchased Upstate 14-526
T1 sequence (P08581 974-1390 limits assumed): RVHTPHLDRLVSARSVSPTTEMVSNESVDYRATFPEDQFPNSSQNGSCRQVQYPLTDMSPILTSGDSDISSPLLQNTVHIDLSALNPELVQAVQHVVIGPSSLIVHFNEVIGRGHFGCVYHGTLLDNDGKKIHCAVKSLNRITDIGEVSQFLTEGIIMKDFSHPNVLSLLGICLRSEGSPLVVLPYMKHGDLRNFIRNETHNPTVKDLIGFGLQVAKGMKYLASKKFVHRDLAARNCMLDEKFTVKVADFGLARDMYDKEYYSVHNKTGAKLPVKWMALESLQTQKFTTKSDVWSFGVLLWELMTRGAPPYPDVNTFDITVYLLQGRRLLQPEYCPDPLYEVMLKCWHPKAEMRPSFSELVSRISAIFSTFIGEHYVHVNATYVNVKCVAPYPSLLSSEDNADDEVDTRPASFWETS

Compound | inhibition at 1 pM
Nc1ncc(-c2ccc(C(=O)N3CCC(N4CCCC4)CC3)cc2)cc1OCc1cc(F)ccc1F | 24%
COc1ccccc1-c1nc(COc2cc(-c3ccc(C(=O)N4CCC(N5CCCC5)CC4)cc3)cnc2N)no1 | 8%
Nc1ncc(-c2ccc(C(=O)N3CCC(N4CCCC4)CC3)cc2)cc1OCc1csc(-c2ccc(Cl)cc2)n1 | 9%
Cc1nc(COc2cc(-c3ccc(C(=O)N4CCC(N5CCCC5)CC4)cc3)cnc2N)cs1 | 6%
Nc1ncc(-c2ccc(C(=O)N3CCC(N4CCCC4)CC3)cc2)cc1OCc1noc(-c2cccc(C(F)(F)F)c2)n1 | 27%
Cc1noc(C)c1COc1cc(-c2ccc(C(=O)N3CCC(N4CCCC4)CC3)cc2)cnc1N | 10%
Cc1cc(COc2cc(-c3ccc(C(=O)N4CCC(N5CCCC5)CC4)cc3)cnc2N)ccc1F | 27%
Cc1ccc(F)cc1COc1cc(-c2ccc(C(=O)N3CCC(N4CCCC4)CC3)cc2)cnc1N | 29%
Nc1ncc(-c2ccc(C(=O)N3CCC(N4CCCC4)CC3)cc2)cc1OCc1cccc(Br)c1 | 24%
Nc1ncc(-c2ccc(C(=O)N3CCC(N4CCCC4)CC3)cc2)cc1OCc1nc(N)c2ccccc2n1 | 15%
Nc1ncc(-c2ccc(C(=O)N3CCC(N4CCCC4)CC3)cc2)cc1OCc1cccnc1 | 17%
Nc1ncc(-c2ccc(C(=O)N3CCC(N4CCCC4)CC3)cc2)cc1OCc1ccccn1 | 16%
COc1c(C)cnc(COc2cc(-c3ccc(C(=O)N4CCC(N5CCCC5)CC4)cc3)cnc2N)c1C | 20%
Cc1onc(-c2ccccc2)c1COc1cc(-c2ccc(C(=O)N3CCC(N4CCCC4)CC3)cc2)cnc1N | 19%
Nc1ncc(-c2ccc(C(=O)N3CCC(N4CCCC4)CC3)cc2)cc1OCc1cn2cccnc2n1 | 16%
Cc1cc(C)n2nc(COc3cc(-c4ccc(C(=O)N5CCC(N6CCCC6)CC5)cc4)cnc3N)nc2n1 | 18%
Nc1ncc(-c2ccc(C(=O)N3CCC(N4CCCC4)CC3)cc2)cc1OCc1cccc2cccnc12 | 22%
Cn1nc(-c2ccccc2)c(COc2cc(-c3ccc(C(=O)N4CCC(N5CCCC5)CC4)cc3)cnc2N)c1Cl | 63%
Nc1ncc(-c2ccc(C(=O)N3CCC(N4CCCC4)CC3)cc2)cc1OCc1nc2ccccc2s1 | 17%
Cc1ccc(-c2nnc(COc3cc(-c4ccc(C(=O)N5CCC(N6CCCC6)CC5)cc4)cnc3N)o2)cc1 | 18%

Compound | inhibition at 1 pM
Nc1ncc(-c2ccc(C(=O)N3CCC(N4CCCC4)CC3)cc2)cc1OCc1cc(-c2ccccc2)no1 | 23%
Cc1cc(COc2cc(-c3ccc(C(=O)N4CCC(N5CCCC5)CC4)cc3)cnc2N)no1 | 16%
COC(=O)Nc1cc(COc2cc(-c3ccc(C(=O)N4CCC(N5CCCC5)CC4)cc3)cnc2N)on1 | 18%
Cn1ccnc1COc1cc(-c2ccc(C(=O)N3CCC(N4CCCC4)CC3)cc2)cnc1N | 14%
Cc1nc(COc2cc(-c3ccc(C(=O)N4CCC(N5CCCC5)CC4)cc3)cnc2N)n(C)n1 | 14%
Nc1ncc(-c2ccc(C(=O)N3CCC(N4CCCC4)CC3)cc2)cc1OCc1nc2cc(C(F)(F)F)ccc2s1 | 34%
Nc1ncc(-c2ccc(C(=O)N3CCC(N4CCCC4)CC3)cc2)cc1OCc1ccc2ccc(Cl)cc2n1 | 24%
Cc1oc(-c2ccccc2)nc1COc1cc(-c2ccc(C(=O)N3CCC(N4CCCC4)CC3)cc2)cnc1N | 19%
Cc1cc(=O)n2nc(COc3cc(-c4ccc(C(=O)N5CCC(N6CCCC6)CC5)cc4)cnc3N)nc2[nH]1 | 18%
Nc1ncc(-c2ccc(C(=O)N3CCC(N4CCCC4)CC3)cc2)cc1OCc1nnnn1Cc1ccccc1 | 19%
Nc1ncc(-c2ccc(C(=O)N3CCC(N4CCCC4)CC3)cc2)cc1OCc1nc2ncc(Cl)cc2[nH]1 | 16%
Nc1ncc(-c2ccc(C(=O)N3CCC(N4CCCC4)CC3)cc2)cc1OCc1nc2cccnc2[nH]1 | 17%
Nc1ncc(-c2ccc(C(=O)N3CCC(N4CCCC4)CC3)cc2)cc1OCc1nc2ncccc2o1 | 17%
COc1cc(OC)nc(COc2cc(-c3ccc(C(=O)N4CCC(N5CCCC5)CC4)cc3)cnc2N)n1 | 20%
Cc1[nH]cnc1COc1cc(-c2ccc(C(=O)N3CCC(N4CCCC4)CC3)cc2)cnc1N | 12%
CCCCc1nc(COc2cc(-c3ccc(C(=O)N4CCC(N5CCCC5)CC4)cc3)cnc2N)c[nH]1 | 16%
COc1ccnc(COc2cc(-c3ccc(C(=O)N4CCC(N5CCCC5)CC4)cc3)cnc2N)c1OC | 23%
Nc1ncc(-c2ccc(C(=O)N3CCC(N4CCCC4)CC3)cc2)cc1OCc1cn2cc(Cl)ccc2n1 | 16%
Cc1cccnc1COc1cc(-c2ccc(C(=O)N3CCC(N4CCCC4)CC3)cc2)cnc1N | 16%
Cc1ccn2cc(COc3cc(-c4ccc(C(=O)N5CCC(N6CCCC6)CC5)cc4)cnc3N)nc2c1 | 16%

Compound | inhibition at 1 pM
Cc1oc(-c2ccc(F)cc2)nc1COc1cc(-c2ccc(C(=O)N3CCC(N4CCCC4)CC3)cc2)cnc1N | 17%
Cc1cccc(COc2cc(-c3ccc(C(=O)N4CCC(N5CCCC5)CC4)cc3)cnc2N)n1 | 17%
Cc1cc(C)nc(COc2cc(-c3ccc(C(=O)N4CCC(N5CCCC5)CC4)cc3)cnc2N)n1 | 16%
COc1ccccc1-c1nc(COc2cc(-c3ccc(C(=O)N4CCC(N5CCCC5)CC4)cc3)cnc2N)c(C)o1 | 19%
CCc1ccc(COc2cc(-c3ccc(C(=O)N4CCC(N5CCCC5)CC4)cc3)cnc2N)nc1 | 15%
Cc1oc(-c2cccc(F)c2)nc1COc1cc(-c2ccc(C(=O)N3CCC(N4CCCC4)CC3)cc2)cnc1N | 8%
Cn1nc(C(F)(F)F)c2cc(COc3cc(-c4ccc(C(=O)N5CCC(N6CCCC6)CC5)cc4)cnc3N)sc21 | 14%
Nc1ncc(-c2ccc(C(=O)N3CCC(N4CCCC4)CC3)cc2)cc1OCc1cc(-c2ccc(Cl)cc2)no1 | 23%
Cn1nc(CC2CC2)nc1COc1cc(-c2ccc(C(=O)N3CCC(N4CCCC4)CC3)cc2)cnc1N | 7%
Nc1ncc(-c2ccc(C(=O)N3CCC(N4CCCC4)CC3)cc2)cc1OCc1cnc(N)c(N)n1 | 9%
Cn1nc(-c2ccccc2)nc1COc1cc(-c2ccc(C(=O)N3CCC(N4CCCC4)CC3)cc2)cnc1N | 5%
Cn1nc(C2CC2)nc1COc1cc(-c2ccc(C(=O)N3CCC(N4CCCC4)CC3)cc2)cnc1N | 5%
Cc1ccnc2nc(COc3cc(-c4ccc(C(=O)N5CCC(N6CCCC6)CC5)cc4)cnc3N)cn12 | 10%
Nc1ncc(-c2ccc(C(=O)N3CCC(N4CCCC4)CC3)cc2)cc1OCc1ncccn1 | 9%
CCc1ccn2cc(COc3cc(-c4ccc(C(=O)N5CCC(N6CCCC6)CC5)cc4)cnc3N)nc2c1 | 9%
Nc1nc(COc2cc(-c3ccc(C(=O)N4CCC(N5CCCC5)CC4)cc3)cnc2N)nc(Nc2ccccc2)n1 | 9%
Nc1ncc(-c2ccc(C(=O)N3CCC(N4CCCC4)CC3)cc2)cc1OCc1nccn1Cc1ccccc1 | 8%
N#Cc1ccc(COc2cc(-c3ccc(C(=O)N4CCC(N5CCCC5)CC4)cc3)cnc2N)cc1 | 8%
Nc1ncc(-c2ccc(C(=O)N3CCC(N4CCCC4)CC3)cc2)cc1OCc1ccc2ccccc2c1 | 27%
N#Cc1cccc(COc2cc(-c3ccc(C(=O)N4CCC(N5CCCC5)CC4)cc3)cnc2N)c1 | 12%
